As a reminder, the IC50 is the concentration needed to halve the response being measured.

The first assay deals with T1, BTK-WT (Homo sapiens, UniProt Q06187).
T1 construct: purified from insect cells as a full-length construct containing an N-terminal 6X-His tag; His6 (N); made in house; host or cells: insect cells (baculovirus Sf21 in Method B)
T1 sequence (Q06187 whole entry): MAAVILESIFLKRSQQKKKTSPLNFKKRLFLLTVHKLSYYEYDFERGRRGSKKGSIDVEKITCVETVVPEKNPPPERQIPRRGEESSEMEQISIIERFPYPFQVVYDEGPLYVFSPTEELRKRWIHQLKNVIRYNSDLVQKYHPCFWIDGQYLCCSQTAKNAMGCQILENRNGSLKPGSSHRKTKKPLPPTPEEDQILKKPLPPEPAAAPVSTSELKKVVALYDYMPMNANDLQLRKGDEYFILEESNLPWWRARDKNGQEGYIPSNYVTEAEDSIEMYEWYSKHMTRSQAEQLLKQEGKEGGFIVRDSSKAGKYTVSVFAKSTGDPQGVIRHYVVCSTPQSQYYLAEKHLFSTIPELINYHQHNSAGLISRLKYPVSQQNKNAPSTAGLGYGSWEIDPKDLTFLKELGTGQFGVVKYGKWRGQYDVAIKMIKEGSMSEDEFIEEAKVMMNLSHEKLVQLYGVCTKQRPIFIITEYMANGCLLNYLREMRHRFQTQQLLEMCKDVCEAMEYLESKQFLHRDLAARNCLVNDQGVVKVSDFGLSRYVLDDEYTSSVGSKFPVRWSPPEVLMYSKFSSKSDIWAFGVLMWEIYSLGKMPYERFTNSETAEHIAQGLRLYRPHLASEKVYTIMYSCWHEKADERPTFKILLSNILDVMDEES
Nature of the assay: Btk in vitro inhibitory activity (one of Method A TR-FRET, Method B electrophoretic mobility shift, Method C radiometric filter binding). The following applies: Table 10, Formula A-I; read-out: BTK-WT (IC50). The class given is biochemical. As for the experimental part:
Btk kinase activity is determined using a time-resolved fluorescence resonance energy transfer (TR-FRET) methodology. Measurements are performed in a reaction volume of 50 μL using 96-well assay plates. […] The reaction is quenched by the addition of 1.2 equivalents of EDTA (relative to divalent cation) in 25 μL of 1× Lance buffer (Perkin-Elmer). […] The TR-FRET signal is measured on a multimode plate reader with an excitation wavelength (λEx) of 330 nm and detection wavelengths (λEm) of 615 and 665 nm. Activity is determined by the ratio of the fluorescence at 665 nm to that at 615 nm. For each compound, enzyme activity is measured at various concentrations of compound. Negative control reactions are performed in the absence of inhibitor in replicates of six, and two no-enzyme controls are used to determine baseline fluorescence levels. Inhibition constants, Ki(app), were obtained using the program BatchKi(Kuzmic et al. (2000), Anal. Biochem. 286:45-50). IC50s are obtained according to the equation:
IC50={Ki(app)/(1+[ATP]/Km^ATP)}+[E]total/2;
Kinase activity is measured in vitro using electrophoretic mobility shift assay. The kinase reactions are assembled in a total volume of 25 μL in 384 well plates. […] The reaction is incubated for one hour and is quenched by the addition of 45 μL of termination buffer (100 mM HEPES, pH7.5, 0.01% Triton X-100, 30 mM EDTA). The terminated reactions are analyzed using 12 channel LabChip® 3000 microfluidic detection instrument (Caliper Life Sciences). […] Change in the relative fluorescence intensity of the substrate and product peaks is the parameter measured, reflecting enzyme activity. In the presence of an inhibitor, the ratio between product and substrate is altered: the signal of the product decreases, while the signal of the substrate increases.
Activity in each sample is determined as the product to sum ratio (PSR): P/(S+P), where P is the peak height of the product peptide and S is the peak height of the substrate peptide. For each compound, enzyme activity is measured at various concentrations (12 concentrations of compound spaced by 3× dilution intervals). Negative control samples (0%-inhibition in the absence of inhibitor) and positive control samples (100%-inhibition, in the presence of 20 mM EDTA) are assembled in replicates of four and are used to calculate %-inhibition values for each inhibitor at each concentration. Percent inhibition (Pinh) is determined using following equation:
Pinh=(PSR0%-PSRinh)/(PSR0%−PSR100%)*100, where PSRinh is the product sum ratio in the presence of inhibitor, PSR0% is the average product sum ration in the absence of inhibitor and PSR100% is the average product sum ratio in 100%-inhibition control samples;
The IC50 values of inhibitors are determined by 4 parameter sigmoidal dose-response model fitting of the inhibition curves (Pinh versus inhibitor concentration) using XLfit 4 software.
Human Btk kinase (Genbank accession # NP_000052) was purified from insect cells as a full-length construct containing an N-terminal 6X-His tag. Btk kinase activity was determined using a radiometric filter binding assay. Measurements are performed in a low μL reaction volume 384-well assay plates. […] IC50 values and curve fits were obtained using Prism (GraphPad Software).
For orientation: Mobility shift assays separate free from complexed probe on a gel.
Regarding `C=CC(=O)N1CCCN(c2nnc(C(N)=O)c(Nc3ccc(C(C)C)cc3)n2)CC1` [Example A-90, 3-(4-acryloyl-1,4-diazepan-1-yl)-5-(4-isopropylphenylamino)-1,2,4-triazine-6-carboxamide], the 50% inhibitory concentration (IC50) was at most 100 nM.

On to `C=CC(=O)N[C@@H]1CCCN(c2cnc(C(N)=O)c(Nc3cccc(-c4ncccn4)c3)n2)C1` [Example A-88, (R)-5-(3-acrylamidopiperidin-1-yl)-3-(3-(pyrimidin-2-yl)phenylamino)pyrazine-2-carboxamide], for which the IC50 fell in the range of 100 to 1000 nM.

`C=CC(=O)N[C@@H]1CCCN(c2cnc(C(N)=O)c(Nc3cc(C)ns3)n2)C1` [Example A-86, (R)-5-(3-acrylamidopiperidin-1-yl)-3-(3-methylisothiazol-5-ylamino)pyrazine-2-carboxamide]: the IC50 is at most 100 nM.

For `C=CC(=O)N[C@H]1CCCN(c2cnc(C(N)=O)c(Nc3cc(C)ns3)n2)C1` [Example A-87, (S)-5-(3-acrylamidopiperidin-1-yl)-3-(3-methylisothiazol-5-ylamino)pyrazine-2-carboxamide], the IC50 is at most 100 nM.

`C=CC(=O)N[C@H]1CCCN(c2cnc(C(N)=O)c(Nc3ccc(-c4ncccn4)cc3)n2)C1` [Example A-89, (S)-5-(3-acrylamidopiperidin-1-yl)-3-(4-(pyrimidin-2-yl)phenylamino)pyrazine-2-carboxamide]: the IC50 is at most 100 nM.

Still in this assay, the particulars now being: Table 11, Formula B-I; read-out: BTK-WT (IC50).
`C=CC(=O)N[C@H]1CCC[C@@H](Nc2nnc(C(N)=O)c(Nc3ccc(C(C)C)cc3)n2)C1` (racemic) [Example B-12, 3-((1R,3S)-3-acrylamido-cyclohexylamino)-5-(4-isopropylphenylamino)-1,2,4-triazine-6-carboxamide]: the IC50 was at most 100 nM.

With `C=CC(=O)N[C@H]1CCCC[C@H]1Nc1nnc(C(N)=O)c(Nc2ccc(C(C)C)cc2)n1` [Example B-7, 3-((1R,2S)-2-acrylamido-cyclohexylamino)-5-(4-isopropylphenylamino)-1,2,4-triazine-6-carboxamide], the 50% inhibitory concentration (IC50) is at most 100 nM.

Regarding `C=CC(=O)N[C@@H]1CCCC[C@H]1Nc1nnc(C(N)=O)c(Nc2ccc(C(C)C)cc2)n1` [Example B-8, 3-((1R,2R)-2-acrylamido-cyclohexylamino)-5-(4-isopropylphenylamino)-1,2,4-triazine-6-carboxamide], the IC50 is at most 100 nM.

`C=CC(=O)N[C@H]1CCCC[C@@H]1Nc1nnc(C(N)=O)c(Nc2ccc(C(C)C)cc2)n1` [Example B-9, 3-((1S,2S)-2-acrylamido-cyclohexylamino)-5-(4-isopropylphenylamino)-1,2,4-triazine-6-carboxamide]: the IC50 was at most 100 nM.

Take `C=CC(=O)N[C@@H]1CCC[C@@H](Nc2nnc(C(N)=O)c(Nc3ccc(C(C)C)cc3)n2)C1` (racemic) [Example B-11, 3-((1R,3R)-3-acrylamido-cyclohexylamino)-5-(4-isopropylphenylamino)-1,2,4-triazine-6-carboxamide]: the IC50 was at most 100 nM.

Take `C=CC(=O)N[C@@H]1CCCC[C@@H]1Nc1nnc(C(N)=O)c(Nc2ccc(C(C)C)cc2)n1` [Example B-10, 3-((1S,2R)-2-acrylamido-cyclohexylamino)-5-(4-isopropylphenylamino)-1,2,4-triazine-6-carboxamide]: the IC50 was at most 100 nM.

For the molecule `C=CC(=O)N(C)[C@H]1CC[C@H](N(C)c2cnc(C(N)=O)c(Nc3cc(C)ns3)n2)CC1` [Example B-6, 5-(methyl((1r,4r)-4-(N-methylacrylamido)cyclohexyl)amino)-3-(3-methylisothiazol-5-ylamino)pyrazine-2-carboxamide], the IC50 was at most 100 nM.

Staying with this assay, now noted: Table 12, Formula C-I; read-out: BTK-WT (IC50).
Regarding `C=CC(=O)N1CCC[C@H](Nc2nnc(C(N)=O)c(Nc3ccc(C(C)C)cc3)n2)C1` [Example C-17, (S)-3-(1-acryloylpiperidin-3-ylamino)-5-(4-isopropylphenylamino)-1,2,4-triazine-6-carboxamide], the IC50 is at most 100 nM.

For `C=CC(=O)N1CCC[C@H](N(C)c2cnc(C(N)=O)c(Nc3cc(-c4ccccc4)ns3)n2)C1` [Example C-25, (S)-5-((1-acryloylpiperidin-3-yl)(methyl)amino)-3-(3-phenylisothiazol-5-ylamino)pyrazine-2-carboxamide], the IC50 was at most 100 nM.

With `CC(C)c1ccc(Nc2nc(N[C@H]3CCCN(C(=O)CN)C3)nnc2C(N)=O)cc1` [Example C-18, (S)-3-(1-(2-aminoacetyl)piperidin-3-ylamino)-5-(4-isopropylphenylamino)-1,2,4-triazine-6-carboxamide], the IC50 was 100 to 1000 nM.

On to `C=CC(=O)N1CCC[C@@H](Nc2nnc(C(N)=O)c(Nc3ccc(C(C)C)cc3)n2)C1` [Example C-26, (R)-3-(1-acryloylpiperidin-3-ylamino)-5-(4-isopropylphenylamino)-1,2,4-triazine-6-carboxamide], for which the IC50 is at most 100 nM.

Consider `C=CC(=O)N1CCC[C@@H](N(C)c2nnc(C(N)=O)c(Nc3ccc(C(C)C)cc3)n2)C1` [Example C-27, (R)-3-((1-acryloylpiperidin-3-yl)(methyl)amino)-5-(4-isopropylphenylamino)-1,2,4-triazine-6-carboxamide], for which the IC50 was at most 100 nM.

Turning to `C=CC(=O)NCCCC(=O)N1CCC[C@H](Nc2nnc(C(N)=O)c(Nc3ccc(C(C)C)cc3)n2)C1` [Example C-21, (S)-3-(1-(4-acrylamidobutanoyl)piperidin-3-ylamino)-5-(4-isopropylphenylamino)-1,2,4-triazine-6-carboxamide], the IC50 fell in the range of 100 to 1000 nM.

Consider `C=CC(=O)N1CCC(CN(C)c2cnc(C(N)=O)c(Nc3ccc(C(C)C)cc3)n2)CC1` [Example C-24, 5-(((1-acryloylpiperidin-4-yl)methyl)(methyl)amino)-3-(4-isopropylphenylamino)pyrazine-2-carboxamide], for which the IC50 was at most 100 nM.

For the molecule `C=CC(=O)N1CCC[C@@H](Nc2nnc(C(N)=O)c(Nc3ccc(C(C)C)cc3)n2)[C@H]1C` [Example C-28, 3-((2R,3R)-1-acryloyl-2-methylpiperidin-3-ylamino)-5-(4-isopropylphenylamino)-1,2,4-triazine-6-carboxamide], the IC50 is at most 100 nM.

Take `CC(C)c1ccc(Nc2nc(N[C@H]3CCCN(C(=O)CCCN)C3)nnc2C(N)=O)cc1` [Example C-20, (S)-3-(1-(4-aminobutanoyl)piperidin-3-ylamino)-5-(4-isopropylphenylamino)-1,2,4-triazine-6-carboxamide]: the IC50 fell in the range of 100 to 1000 nM.

For the molecule `C=CC(=O)NCC(=O)N1CCC[C@H](Nc2nnc(C(N)=O)c(Nc3ccc(C(C)C)cc3)n2)C1` [Example C-19, (S)-3-(1-(2-acrylamidoacetyl)piperidin-3-ylamino)-5-(4-isopropylphenylamino)-1,2,4-triazine-6-carboxamide], the IC50 was in the range of 100 to 1000 nM.

`C=CC(=O)N1CCC(CNc2nnc(C(N)=O)c(Nc3ccc(C(C)C)cc3)n2)CC1` [Example C-22, 3-((1-acryloylpiperidin-4-yl)methylamino)-5-(4-isopropylphenylamino)-1,2,4-triazine-6-carboxamide]: the IC50 was at most 100 nM.

As to `C=CC(=O)N1CCC[C@H](N(C)c2cnc(C(N)=O)c(Nc3ccc(C(C)C)cc3)n2)C1` [Example C-23, (S)-5-((1-acryloylpiperidin-3-yl)(methyl)amino)-3-(4-isopropylphenylamino)pyrazine-2-carboxamide], the IC50 is at most 100 nM.

(Values after US20210070748A1, “INHIBITORS OF BRUTONS TYROSINE KINASE” (Pharmacyclics LLC, priority 2015, published 2021).)
